Source: the supplement of paper PMC10307832

Key:
Test in all cases: relative viability (nuclei count vs DMSO), 5 days (fraction); higher = more cells survive
IPA-3 + Vorinostat = compound: C1=CC=C2C(=C1)C=CC(=C2SSC3=C(C=CC4=CC=CC=C43)O)O [IPA-3] + O=C(CCCCCCC(=O)Nc1ccccc1)NO [Vorinostat] (partner 1 µM)
Outline: (§1)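 After 5 days of treatment, lung cancer cells in 1536-well plates were fixed and stained in a single step (final 0.05% Triton X-100, 1% formaldehyde, 1 ug/ml Hoechst) and their nuclei counted on 4× images. Treatment had been applied by pin tool the day after seeding as one drug alone or as a fixed anchor-drug dose with five library-drug doses (not always all listed) in √10 steps. Relative viability is the nuclei count of treated wells divided by that of vehicle wells, and values are medians of duplicate plates.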

Doramapimod + Vorinostat = compound: Cc1ccc(-n2nc(C(C)(C)C)cc2NC(=O)Nc2ccc(OCCN3CCOCC3)c3ccccc23)cc1 [Doramapimod] + O=C(CCCCCCC(=O)Nc1ccccc1)NO [Vorinostat] (partner 1 µM)
Outline: as §1

IPA-3 + Navitoclax = compound: C1=CC=C2C(=C1)C=CC(=C2SSC3=C(C=CC4=CC=CC=C43)O)O [IPA-3] + CC1(C)CCC(c2ccc(Cl)cc2)=C(CN2CCN(c3ccc(C(=O)NS(=O)(=O)c4ccc(N[C@H](CCN5CCOCC5)CSc5ccccc5)c(S(=O)(=O)C(F)(F)F)c4)cc3)CC2)C1 [Navitoclax] (partner 0.5 µM)
Outline: as §1

Cell Line	relative viability (IPA-3 + Vorinostat; first compound 0.2 µM)	relative viability (IPA-3 + Vorinostat; first compound 0.6325 µM)	relative viability (IPA-3 + Vorinostat; first compound 2 µM)	relative viability (IPA-3 + Vorinostat; first compound 6.325 µM)	relative viability (IPA-3 + Vorinostat; first compound 20 µM)	relative viability (Doramapimod + Vorinostat; first compound 0.02 µM)	relative viability (Doramapimod + Vorinostat; first compound 0.06325 µM)	relative viability (Doramapimod + Vorinostat; first compound 0.2 µM)	relative viability (Doramapimod + Vorinostat; first compound 0.6325 µM)	relative viability (Doramapimod + Vorinostat; first compound 2 µM)	relative viability (IPA-3 + Navitoclax; first compound 0.2 µM)	relative viability (IPA-3 + Navitoclax; first compound 0.6325 µM)	relative viability (IPA-3 + Navitoclax; first compound 2 µM)	relative viability (IPA-3 + Navitoclax; first compound 6.325 µM)	relative viability (IPA-3 + Navitoclax; first compound 20 µM)
201T	1.04	0.931	1.01	0.926	1.13	0.994	1.03	1.06	0.672	1	1.21	1.19	1.21	1.22	1.18
A549	–	–	–	–	–	–	–	–	–	–	1.27	1.21	1.39	1.28	1.18
A-427	0.858	0.88	0.9	0.918	0.853	0.905	0.889	0.904	–	0.904	0.996	0.857	0.98	0.856	0.99
ABC-1	1.2	1.31	1.11	1.12	1.13	1.25	1.29	1.21	0.865	1.15	–	–	–	–	–
BEN	0.594	0.59	0.586	0.686	0.568	0.54	0.561	0.513	0.458	0.584	0.0641	0.0847	0.0621	0.0718	0.0865
CAL-12T	1	0.58	0.773	0.762	1.13	0.621	0.787	0.713	0.945	0.754	1.41	1.21	1.39	1.19	1.23
COR-L23	0.561	0.471	0.416	0.232	0.307	0.449	0.489	0.386	0.537	0.424	1.11	0.975	1.07	0.983	0.926
COR-L 105	1.08	0.543	0.907	0.995	0.79	0.671	0.881	0.763	1	0.764	0.866	1.07	0.925	0.644	0.782
Calu-6	–	–	–	–	–	–	–	–	–	–	0.794	0.839	0.833	0.753	0.536
ChaGo-K-1	0.968	0.699	0.757	0.864	0.875	0.778	0.769	0.689	0.596	0.64	1.07	1	0.836	1.06	1.17
EBC-1	–	–	–	–	–	–	–	–	–	–	0.417	0.392	0.387	0.333	0.309
EKVX	0.801	0.693	0.83	0.793	0.763	0.819	0.749	0.76	0.771	0.725	1.05	0.608	1.05	0.851	1.23
EMC-BAC-2	0.436	0.556	0.504	0.428	0.491	0.49	0.867	0.78	0.256	0.433	1.38	1.11	1.16	1.09	1.32
